Results on one molecule are retold here after patent publication US12390440B2, “Immunomodulating trifluoromethyl-aminal azalides” (Zoetis Services LLC, priority 2020, dated 2025).

Values after ≈ are worked out from the molar mass of the structure shown. “Also recorded” adds a separate entry of the source. Where only a bound is given, the exact number is not on record here.

One data set deals with H. somni. Description: MIC, H. somni.
Data set [1] relates to M. haemolytica (strain: OSU-012103-BHI). Description: Bovine M. haemolytica intratracheal lung challenge model.
The subject of data set [2] is bovine respiratory disease (BRD). The experiment in a line: Natural bovine respiratory disease study. The format is in vivo, beef calves. To be noted: 14-day observation, dosed on arrival to feedlot.
The test system of another data set is P. multocida 46572. Description: In vivo mouse lung infection challenge model (murine efficacy). To be noted: mouse, in vivo. How it is done: The challenge organism was P. multocida 46572. Target challenge concentration was 5×10^2 CFU/mouse. Isolated colonies from overnight growth (37° C. with 5% CO2) on trypticase soy agar (TSA II) blood plates were transferred to room temperature Brain Heart Infusion Broth (BHIB). The broth culture was incubated 3.5-4 hours to approximately mid-log phase of growth, as measured by forward light scatter at 600 nm (OD600, 0.200). The culture was centrifuged to collect the bacterial pellet. The pellet was re-suspended in BHIB and adjusted to provide an approximate concentration of 2.7 log^10 colony forming units (CFU) in 0.04 mL at the highest concentration. The challenge inoculum concentration was confirmed by serial dilutions of the inoculum for CFU enumeration. On Day −5, CD-1 female mice were received. Mice were given standard rodent diet and water ad libitum. On Day 0, bacterial inoculum (0.04 mL) was administered to each mouse (n=36) intranasally. Compounds of the invention were dosed at 20 mg/kg (0.1 mL) in a buffered (˜pH 5.4) propylene glycol, monothioglycerol and water solution by subcutaneous injection. Animals were observed from Days 1-10. The study was terminated on Day 10. In addition, some treatment groups were sampled at 6, 24, and 48 hours post bacterial challenge for RNA sequence analysis of lung tissue.
The murine efficacy model (P. multocida challenge) was optimized, and the treatment group size was powered to be able to observe statistically significant improvement of survival to expected ranges for immunomodulatory compounds. The experimental design was a randomized complete block design. Mice were individually identified and treatment groups comingled within a cage, with every treatment group equally represented across cages. Mortality was the primary variable. Mortality data was analyzed using a generalized mixed model with fixed effect of treatment and random effect of block. Survival time was also analyzed using the SAS PHREG (survival analysis) procedure to examine whether there were significant differences between treatment groups and the control group. Numerous compounds of the invention and M9 (positive control) were tested in this model at a dose of 20 mg/kg (Table 3). Typical percent survival for no treatment control is in the range of 0-20% based on study to study variation in challenge inoculum and rate of infection. […] Mouse survival for M9 was about 90-100%, further supporting its residual antibacterial properties against the bacterial strain. Harmonized survival accounts for % survival relative to vehicle (“−” control) and M9 (“+” control)) survival data (Table 3).

The subject of another data set is IL-6. The experiment in a line: Bovine whole blood assay, IL-6. Type of data set: cell-based. To be noted: Bos taurus, fresh whole bovine blood, LPS 1 μg/mL. As to the method: (§1) (protected from light) for 30 minutes.
Another data set has as its target NLRX1 (Bos taurus, UniProt A7MB19). Description: Drug/protein binding partner, SPR: NLRX1. To be noted: PBMCs. On the set-up: species or system bovine. As to the method: To further characterize the direct activity of the compounds of the invention, experiments to identify the drug's direct binding host partners(s) were performed with the aim of identifying the potential biological targets. Bovine primary cells (peripheral blood mononuclear cells [PBMCs] and polymorphonuclear cells [PMN/neutrophils]) and tissue (trachea, lung) protein homogenates were mixed with M9 and the macrolide, gamithromicin as a comparator. Tissue interactions were allowed to form using a heterogeneous assembly method (nematic protein organization technique, NPOT; Inoviem Scientific); and traditional western blots to identify native-structure proteins bound to the compound. Mass spectrometry analysis identified eight proteins involved in the interaction with M9 as compared to gamithromycin. The antibacterial macrolide gamithromycin was used as a comparator to differentiate specific binding to M9. These proteins were considered to be either direct binding partners of the drug or closely involved in the drug:target interaction (Table 6).
In order to add further clarity to binding partner identification, surface plasma resonance (SPR) technology was used. […]
KD is the equilibrium dissociation constant that was used to present the drug/target affinity. The identified targets associated with drug were measured by surface plasmon resonance (SPR) to define the KD.

Data set [3] relates to bovine alveolar macrophages. The experiment in a line: Phospholipidosis assay (HCS LipidTox). To be noted: Bos taurus, Macrophage. The format is cell-based. The text has this: The second immunomodulation in vitro assay evaluated the potential for phospholipidosis with the compounds of the invention in bovine alveolar macrophages. The phospholipidosis assay is being used as a convenient method for the evaluation of cellular uptake. This assay utilized Invitrogen's commercially available HCS LipidTox detection kit with an Incucyte real time fluorescence reader to observe variations in EC50 and phospholipidosis profiles based on compound concentrations (Table 2). […] Murine intraperitoneal macrophages were also used in the same assay to evaluate species variability for potential correlation with mouse efficacy results. The combination of the bovine whole blood assay and phospholipidosis assays enabled rank ordering for progression into in vivo testing in the murine challenge model.

A further data set concerns S. aureus. The experiment in a line: MIC, S. aureus. To be noted: Staphylococcus aureus.
A further data set concerns IL-1β. The experiment in a line: Bovine whole blood assay, IL-1β.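 Further: compound concentration at which rising IL-1β release signals cytotoxicity.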 To be noted: overstimulation of IL-1β, perceived cellular toxicity concentration. Type of data set: cell-based. How it is done: as §1

Sequence of NLRX1 (A7MB19 1-973): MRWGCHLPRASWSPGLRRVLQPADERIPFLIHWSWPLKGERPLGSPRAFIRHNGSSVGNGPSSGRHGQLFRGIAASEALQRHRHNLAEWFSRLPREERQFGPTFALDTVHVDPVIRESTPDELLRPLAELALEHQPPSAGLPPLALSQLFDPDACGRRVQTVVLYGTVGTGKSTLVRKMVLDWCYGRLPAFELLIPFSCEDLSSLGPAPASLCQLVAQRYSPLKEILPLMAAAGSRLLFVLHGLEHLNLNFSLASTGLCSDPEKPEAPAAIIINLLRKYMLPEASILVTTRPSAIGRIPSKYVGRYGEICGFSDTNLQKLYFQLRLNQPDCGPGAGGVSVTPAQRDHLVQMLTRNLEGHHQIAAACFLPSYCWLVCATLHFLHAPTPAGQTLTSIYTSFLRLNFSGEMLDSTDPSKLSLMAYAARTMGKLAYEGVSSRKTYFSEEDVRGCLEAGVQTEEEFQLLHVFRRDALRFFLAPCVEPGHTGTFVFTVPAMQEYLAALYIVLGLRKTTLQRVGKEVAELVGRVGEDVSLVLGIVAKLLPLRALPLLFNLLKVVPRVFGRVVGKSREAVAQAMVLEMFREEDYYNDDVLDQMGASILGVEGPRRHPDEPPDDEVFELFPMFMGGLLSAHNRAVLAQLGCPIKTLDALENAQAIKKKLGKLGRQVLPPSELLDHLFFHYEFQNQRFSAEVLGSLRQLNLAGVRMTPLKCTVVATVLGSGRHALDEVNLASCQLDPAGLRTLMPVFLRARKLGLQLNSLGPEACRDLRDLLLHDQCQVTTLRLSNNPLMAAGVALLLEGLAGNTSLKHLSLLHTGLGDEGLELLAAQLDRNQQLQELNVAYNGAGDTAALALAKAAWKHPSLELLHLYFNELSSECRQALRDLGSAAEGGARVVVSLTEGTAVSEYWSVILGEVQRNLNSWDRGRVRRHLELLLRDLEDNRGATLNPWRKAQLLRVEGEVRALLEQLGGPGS

Broadly, the MIC50 is the lowest concentration that inhibits either 50% of growth or 50% of the strains tested, depending on the study. High values mean lower susceptibility, low ones higher susceptibility. As usually defined, the MIC90 is an inhibitory concentration at the 90% level, which refers to growth in some studies and to a panel of isolates in others. A higher MIC90 goes with lower susceptibility. The IC50 is the concentration at which inhibition is half-maximal. A low value points to higher potency. As usually defined, the EC50 is the midpoint of the concentration-response curve. Usually MIC stands for the smallest concentration in the dilution series that meets the test's criterion for growth inhibition. A higher MIC goes with a less susceptible organism. In the case of `CCCNC[C@]1(O)[C@H](C)O[C@@H](O[C@H]2[C@H](C)[C@@H](O[C@@H]3O[C@H](C)C[C@H](NC)[C@H]3O)[C@](C)(O)C[C@@H](C)CN[C@H](C)[C@@H](O)[C@](C)(O)[C@@H](CC)OC(=O)[C@@H]2C)C[C@@]1(C)OC` [Example M9, (2R,3S,4R,5R,8R,10R,11R,12S,13S,14R)-2-ethyl-3,4,10-trihydroxy-13-(((2R,4R,5S,6S)-5-hydroxy-4-methoxy-4,6-dimethyl-5-((propylamino)methyl)-tetrahydro-2H-pyran-2-yl)oxy)-11-(((2S,3R,4S,6R)-3-hydroxy-6-methyl-4-(methylamino)tetrahydro-2H-pyran-2-yl)oxy)-3,5,8,10,12,14-hexamethyl-1-oxa-6-azacyclopentadecan-15-one], in the data set on H. somni, the MIC50 came to 32 mg/L (≈ 40.4 µM). In the data set with H. somni, this molecule registered an MIC90 of 32 mg/L (≈ 40.4 µM). For the same molecule, the Mortality in data set [1] (T02: 10 mg/kg subcutaneous Day −1, M. haemolytica challenge Day 0) is reported as 1/6; in data set [1] (T04: 10 mg/kg subcutaneous Day −1, no challenge), 0/6. For the same molecule, the IL-6 levels entry in data set [1] (bovine M. haemolytica challenge) was “significantly reduced”. For the same molecule, in data set [1] (cattle, monocytes/macrophages in whole blood), the CD163 expression result was “suppressed; also recorded: mitigates the pathologic increase”. Also, the Percent failure came to 19.3% in data set [2] (5 mg/kg (T02)) and 8.8% in data set [2] (10 mg/kg (T03)). Moreover, the “clinical efficacy in P. multocida infection in mice” value with P. multocida 46572 is given as “clinically efficacious”. In the data set on IL-6, this molecule had an IC50 greater than 250 µM. At NLRX1, the “Interaction KD” value is “Indirect”. The EC50 in [3] turned out to be 53.7 µM. In addition, the MIC against S. aureus came out at 64 mg/L (≈ 80.8 µM). Further, the “IL-1β OS of LPS” value in the data set with IL-1β is greater than 500 µM.
